According to patent US20200375965A1, “Targeting Lipid Metabolism and Free Fatty Acid (FFA) Oxidation to Treat Diseases Mediated by Resident Memory T Cells (TRM)” (The Brigham and Women's Hospital, Inc., priority 2018, published 2020):

Tests used:
VACV = test system: VACV; design: species or system mice; conditions: mouse, in vivo
[1] = test system: TRM mediated contact hypersensitivity (CHS); experiment: DNFB contact hypersensitivity (CHS), ear thickness; assay type: in vivo, C57BL/6 mice; conditions: etomoxir 1 ug/site, trimetazidine 10 ug/site at challenge with 0.25% DNFB
Experimental: FIG. 15. […] Effect of FAO inhibition on contact hypersensitivity (CHS) reaction post DNFB re-exposure. DNFB: 20 ul, 0.25% in acetone:olive oil (aOO) (3:1 v/v); Etomoxir (1 ug/site); Trimetazidine (10 ug/site). N=10 mice per group.
C57BL/6 mice were sensitized by topical applications of 20 μl of 0.25% DNFB diluted in acetone olive oil (3:1 v/v) at the indicated time points (day 0, 1 and 7). Challenge was performed at the infection site with 20 μl of DNFB-acetone olive oil (aOO) (0.25%), with or without etomoxir (1 ug/site) and trimetazidine (10 ug/site), at the indicated time points. Then the ear thickness of the mice was measured with a digital thickness gauge (Mitsutoyo) for the following days.

[2] = test system: OT-I TRM, TCM and Fabp4/5 dKO TRM; experiment: Seahorse Fatty Acid Oxidation (FAO) assay, oxygen-consumption rate; assay type: cell-based, mouse
Experimental: Oxidation of exogenous free fatty acids (FFA) was measured using XF Palmitate-BSA FAO substrate with XF cell mito stress kit according to the manufacturer's protocol (Seahorse Bioscience). Freshly isolated and sorted T cells (2.5×10^5) were incubated for 30 min with FAO assay medium (111 mM NaCl, 4.7 mM KCl, 1.25 mM CaCl2), 2.0 mM MgSO4, 1.2 mM Na2HPO4, 2.5 mM glucose, 0.5 mM carnitine and 5 mM HEPES). When required, cells were pre-treated with etomoxir (40 μM) for 15 min. Afterwards, BSA (34 μM) or palmitate-BSA (200 μM palmitate conjugated with 34 μM BSA) was added to the medium, and the oxygen-consumption rate (OCR) was measured under basal conditions and in response to 1 uM oligomycin, 1.5 uM fluorocarbonyl cyanide phenylhydrazone (FCCP), and 100 nM rotenone+1 uM antimycin A. Results were normalized to those of control cells in the presence of BSA.

OT-1 skin TRM = experiment: Bodipy FL C16 (Bodipy conjugated palmitate) uptake ex vivo, flow cytometry; assay type: cell-based, mouse; conditions: pre-incubation with unlabeled palmitate (100 μM palmitic acid, 10 min, 37° C.); day 30 TRM
From the text: The following anti-mouse antibodies were obtained from BD PharMingen: PerCP-conjugated anti-CD3e (553067), PE-conjugated anti-CD8 (557654), PE-Cy7-conjugated anti-CD8 (552877), APC-Cy7-conjugated anti-CD8 (557654), PE-conjugated anti-Thy1.1 (561404), APC-conjugated anti-Thy1.1 (557266), Alexa Fluor 488-conjugated anti-KLRG1 (561619), PE-conjugated anti-integrin α4β7 (553811), PE-Cy7-conjugated anti-CD62L (560516), APC-Cy7-conjugated CD62L (560514), APC-conjugated anti-IFN-γ (554413). Biolegend: Alexa Fluor 488-conjugated anti-CD3e (100321), Alexa Fluor 647-conjugated anti-CD4 (100424), Alexa Fluor 594-conjugated anti-Ep-CAM (118222), FITC-conjugated anti-CD45.1 (110706), PE-conjugated anti-CD45.1 (110708), PE-Cy7-conjugated anti-CD45.2 (109830), APC-conjugated anti-CD45.2 (109814), PE-conjugated anti-CD45.2 (109808), APC-conjugated anti-KLRG1 (138412), PE-conjugated anti-CD44 (103008), PE-Cy7-conjugated anti-CD44 (103030), PE-Cy7-conjugated anti-CD69 (104512), APC-conjugated anti-CD103 (121414), APC-conjugated anti-integrin α4β7 (120608). […] Apoptosis was measured with FITC Annexin V Apoptosis Detection Kit (640922; Biolegend) according to manufacturer's protocol. Flow cytometry data were acquired with a FACS Canto II flow cytometer (BD Biosciences) and data were analyzed with Flowjo software (Tree Star). […]

WR-VACV = test system: WR-VACV; design: species or system mice; conditions: mouse, in vivo

CCOC(=O)C1(CCCCCCOc2ccc(Cl)cc2)CO1 (stereo not shown) [etomoxir, 2-(6-(4-chlorophenoxy)-hexyl)-oxirane-2-carboxylic acid ethyl ester]
VACV clearing capacity of OT-I WT TRM (VACV): reduced
contact hypersensitivity (CHS) reaction post DNFB re-exposure [1]: Block
enhanced basal and FCCP-stimulated maximal oxygen-consumption rate (OCR) induced by extracellular fatty acids ([2]; OT-I TRM, pre-treatment with etomoxir 40 μM for 15 min): blocked
cellular respiration (OCR) ([2]; TCM or Fabp4/5 dKO TRM OT-I cells, addition of etomoxir): no effect

CCCCCCCCCCCCCCCC(=O)O [unlabeled palmitate, palmitic acid]
uptake of extracellular Bodipy conjugated palmitate (OT-1 skin TRM): blocked

CCCCCCCCc1ccc(CCC(N)(CO)CO)cc1 [FTY720]
clearing of virus from skin by established OT-I WT TRM (VACV; ip, 1 mg/kg): unaffected
reduced viral clearance by OT-I TRM lacking Fabp4 and Fabp5 (VACV; ip, 1 mg/kg): exaggerated
mortality (WR-VACV): 100%
protection from lethality (WR-VACV): partially but significantly protected

COc1ccc(CN2CCNCC2)c(OC)c1OC [trimetazidine]
contact hypersensitivity (CHS) reaction post DNFB re-exposure [1]: Block
